Measured values: patent US9695155B2, “Herbicidal substituted pyrimidinyloxy benzene compounds” (E. I. DU PONT DE NEMOURS AND COMPANY, priority 2013, dated 2017)

Key:
[1] = system: johnsongrass; assay: Test C preemergence; type: in vivo, Sorghum halepense; conditions: Sorghum halepense, pre-emergence
Outline: (§1)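 Whole-plant greenhouse test with surfactant-containing solvent formulation, applied preemergence to sown loam–sand pots or postemergence to 2–18 cm plants. Scored by eye 13 to 15 days on, 0–100 scale.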

[2] = system: large (Lg) crabgrass; assay: Test A preemergence; type: in vivo, Digitaria sanguinalis; conditions: Digitaria sanguinalis, pre-emergence, 240 h
Outline: (§2)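 Greenhouse pot test, loam/sand soil. Formulation: non-phytotoxic solvent mix plus surfactant. Pre: directed spray onto soil after sowing. Post: plants at 1–2 leaf, 2–10 cm. Rated visually vs untreated controls at ~10 d, 0 (no effect) to 100 (complete control).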

[3] = system: waterhemp; assay: Test C preemergence; type: in vivo, Amaranthus rudis; conditions: Amaranthus tuberculatus, pre-emergence
Outline: as §1

[4] = system: pigweed; assay: Test A preemergence; type: in vivo, Amaranthus retroflexus; conditions: Amaranthus retroflexus, pre-emergence
Outline: as §2

[5] = system: velvetleaf; assay: Test C postemergence; type: in vivo, Abutilon theophrasti; conditions: Abutilon theophrasti, post-emergence
Outline: as §1

[6] = system: morningglory; assay: Test A preemergence; type: in vivo, Ipomoea spp.
Outline: as §2

[7] = system: galium; assay: Test C postemergence; type: in vivo, Galium aparine; conditions: Galium, post-emergence
Outline: as §1

[8] = system: pigweed; assay: Test C postemergence; type: in vivo, Amaranthus retroflexus; conditions: Amaranthus retroflexus, post-emergence
Outline: as §1

[9] = system: oilseed rape; assay: Test C postemergence; type: in vivo, Brassica napus; conditions: Brassica napus, post-emergence
Outline: as §1

[10] = system: corn; assay: Test A postemergence; type: in vivo, Zea mays; conditions: Zea mays, post-emergence, 240 h
Outline: as §2

[11] = system: soybean; assay: Test C preemergence; type: in vivo, Glycine max; conditions: Glycine max, pre-emergence
Outline: as §1

[12] = system: ragweed; assay: Test C postemergence; type: in vivo, Ambrosia elatior; conditions: Ambrosia artemisiifolia, post-emergence
Outline: as §1

[13] = system: velvetleaf; assay: Test A preemergence; type: in vivo, Abutilon theophrasti
Outline: as §2

[14] = system: wheat; assay: Test A postemergence; type: in vivo, Triticum aestivum; conditions: Triticum aestivum, post-emergence, 240 h
Outline: as §2

[15] = system: giant foxtail; assay: Test C preemergence; type: in vivo, Setaria faberii; conditions: Setaria faberi, pre-emergence
Outline: as §1

[16] = system: ragweed; assay: Test C preemergence; type: in vivo, Ambrosia elatior; conditions: Ambrosia artemisiifolia, pre-emergence
Outline: as §1

[17] = 125 g ai/ha, 0 to 100 scale where 0 is no effect and 100 is complete control

N#Cc1cccc(Oc2ncc(Br)cn2)c1-n1cc(C(F)(F)F)cn1 [Compound 59, 3-[(5-bromo-2-pyrimidinyl)oxy]-2-[4-(trifluoromethyl)-1H-pyrazol-1-yl]benzonitrile]
60%: pest or weed control at 31 g/ha ([1]; Preemergence, 31 g ai/ha, scale 0 to 100, 0 no effect, 100 complete control, read-out: Plant response rating, Johnsongrass) | Corn plant response rating (crop injury, 0 = no effect, 100 = complete kill) at 125 g/ha [10, 17]
100: Plant response rating, Velvetleaf [13, 17]
98%: pest or weed control at 125 g/ha ([1]; 125 g ai/ha, preemergence, scale 0 (no effect) to 100 (complete control), read-out: Johnsongrass plant response rating) | pest or weed control at 250 g/ha ([8]; 250 g ai/ha, postemergence, read-out: Plant response rating (0 to 100), Pigweed) | pest or weed control at 62 g/ha ([15]; 62 g ai/ha, preemergence, scale 0 (no effect) to 100 (complete control), read-out: Foxtail, Giant plant response rating)
10%: pest or weed control at 31 g/ha ([12]; Postemergence, 31 g ai/ha, scale 0 to 100 (0 no effect, 100 complete control), 13 to 15 days, read-out: Plant response rating, Ragweed)
55%: pest or weed control at 125 g/ha ([5]; 125 g ai/ha, postemergence, read-out: Plant response rating (0 to 100), Velvetleaf) | pest or weed control at 250 g/ha ([12]; 250 g ai/ha, postemergence, read-out: Plant response rating (0 to 100), Ragweed)
30%: pest or weed control at 62 g/ha ([5]; Postemergence, 62 g ai/ha, scale 0 to 100 (0 no effect, 100 complete control), read-out: Plant response rating, Velvetleaf)
70%: pest or weed control at 250 g/ha ([5]; 250 g ai/ha, postemergence, read-out: Plant response rating (0 to 100), Velvetleaf) | plant injury at 125 g/ha ([14]; 125 g ai/ha, 0 to 100 scale where 0 is no effect and 100 is complete control, read-out: Plant response rating, Wheat)
100%: pest or weed control at 250 g/ha ([1]; 250 g ai/ha, preemergence, scale 0 (no effect) to 100 (complete control), read-out: Johnsongrass plant response rating) | pest or weed control at 125 g/ha ([2]; 125 g ai/ha, 0 to 100 scale where 0 is no effect and 100 is complete control, read-out: Plant response rating, Crabgrass, Large) | pest or weed control at 500 g/ha ([2]; 500 g ai/ha, 0 to 100 scale, 0 no effect, 100 complete control, approx. 10 days, read-out: Crabgrass, Large plant response rating) | pest or weed control at 62 g/ha ([3]; 62 g ai/ha, preemergence, scale 0 (no effect) to 100 (complete control), read-out: Waterhemp plant response rating) | pest or weed control at 125 g/ha ([3]; 125 g ai/ha, preemergence, scale 0 (no effect) to 100 (complete control), read-out: Waterhemp plant response rating) | pest or weed control at 250 g/ha ([3]; 250 g ai/ha, preemergence, scale 0 (no effect) to 100 (complete control), read-out: Waterhemp plant response rating) | pest or weed control at 31 g/ha ([3]; Preemergence, 31 g ai/ha, scale 0 to 100, 0 no effect, 100 complete control, read-out: Plant response rating, Waterhemp) | pest or weed control at 125 g/ha ([4]; 125 g ai/ha, 0 to 100 scale where 0 is no effect and 100 is complete control, read-out: Plant response rating, Pigweed) | pest or weed control at 500 g/ha ([4]; 240 h, 500 g ai/ha, 0 to 100 scale, 0 no effect, 100 complete control, approx. 10 days, read-out: Pigweed plant response rating) | pest or weed control at 500 g/ha ([6]; Ipomoea, pre-emergence, 240 h, 500 g ai/ha, 0 to 100 scale, 0 no effect, 100 complete control, approx. 10 days, read-out: Morningglory plant response rating) | plant injury at 500 g/ha ([10]; 500 g ai/ha, 0 to 100 scale, 0 no effect, 100 complete control, read-out: Plant response rating Corn) | pest or weed control at 500 g/ha ([13]; Abutilon theophrasti, pre-emergence, 240 h, 500 g ai/ha, 0 to 100 scale, 0 no effect, 100 complete control, approx. 10 days, read-out: Velvetleaf plant response rating) | plant injury at 500 g/ha ([14]; 500 g ai/ha, 0 to 100 scale, 0 no effect, 100 complete control, read-out: Plant response rating Wheat) | pest or weed control at 125 g/ha ([15]; 125 g ai/ha, preemergence, scale 0 (no effect) to 100 (complete control), read-out: Foxtail, Giant plant response rating) | pest or weed control at 250 g/ha ([15]; 250 g ai/ha, preemergence, scale 0 (no effect) to 100 (complete control), read-out: Foxtail, Giant plant response rating) | pest or weed control at 125 g/ha ([16]; 125 g ai/ha, preemergence, scale 0 (no effect) to 100 (complete control), read-out: Ragweed plant response rating) | pest or weed control at 250 g/ha ([16]; 250 g ai/ha, preemergence, scale 0 (no effect) to 100 (complete control), read-out: Ragweed plant response rating)
50%: plant injury at 31 g/ha ([9]; Postemergence, 31 g ai/ha, scale 0 to 100 (0 no effect, 100 complete control), 13 to 15 days, read-out: Plant response rating, Oilseed Rape) | plant injury at 62 g/ha ([9]; Postemergence, 62 g ai/ha, scale 0 to 100 (0 no effect, 100 complete control), read-out: Plant response rating, Oilseed Rape)
65%: pest or weed control at 31 g/ha ([7]; Postemergence, 31 g ai/ha, scale 0 to 100 (0 no effect, 100 complete control), 13 to 15 days, read-out: Plant response rating, Galium)
25%: pest or weed control at 125 g/ha ([12]; 125 g ai/ha, postemergence, read-out: Plant response rating (0 to 100), Ragweed) | pest or weed control at 62 g/ha ([12]; Postemergence, 62 g ai/ha, scale 0 to 100 (0 no effect, 100 complete control), read-out: Plant response rating, Ragweed)
90%: pest or weed control at 125 g/ha ([7]; 125 g ai/ha, postemergence, read-out: Plant response rating (0 to 100), Galium) | pest or weed control at 250 g/ha ([7]; 250 g ai/ha, postemergence, read-out: Plant response rating (0 to 100), Galium) | pest or weed control at 62 g/ha ([8]; Postemergence, 62 g ai/ha, scale 0 to 100 (0 no effect, 100 complete control), read-out: Plant response rating, Pigweed) | plant injury at 62 g/ha ([11]; 62 g ai/ha, preemergence, scale 0 (no effect) to 100 (complete control), read-out: Soybean plant response rating) | plant injury at 125 g/ha ([11]; 125 g ai/ha, preemergence, scale 0 (no effect) to 100 (complete control), read-out: Soybean plant response rating) | pest or weed control at 31 g/ha ([16]; Preemergence, 31 g ai/ha, scale 0 to 100, 0 no effect, 100 complete control, read-out: Plant response rating, Ragweed)
95%: pest or weed control at 125 g/ha ([8]; 125 g ai/ha, postemergence, read-out: Plant response rating (0 to 100), Pigweed) | plant injury at 250 g/ha ([9]; 250 g ai/ha, postemergence, read-out: Plant response rating (0 to 100), Oilseed Rape) | plant injury at 250 g/ha ([11]; 250 g ai/ha, preemergence, scale 0 (no effect) to 100 (complete control), read-out: Soybean plant response rating) | pest or weed control at 31 g/ha ([15]; Preemergence, 31 g ai/ha, scale 0 to 100, 0 no effect, 100 complete control, read-out: Plant response rating, Foxtail, Giant) | pest or weed control at 62 g/ha ([16]; 62 g ai/ha, preemergence, scale 0 (no effect) to 100 (complete control), read-out: Ragweed plant response rating)
15%: pest or weed control at 31 g/ha ([5]; Postemergence, 31 g ai/ha, scale 0 to 100 (0 no effect, 100 complete control), 13 to 15 days, read-out: Plant response rating, Velvetleaf)
80%: pest or weed control at 62 g/ha ([7]; Postemergence, 62 g ai/ha, scale 0 to 100 (0 no effect, 100 complete control), read-out: Plant response rating, Galium) | pest or weed control at 31 g/ha ([8]; Postemergence, 31 g ai/ha, scale 0 to 100 (0 no effect, 100 complete control), 13 to 15 days, read-out: Plant response rating, Pigweed)
85%: pest or weed control at 62 g/ha ([1]; 62 g ai/ha, preemergence, scale 0 (no effect) to 100 (complete control), read-out: Johnsongrass plant response rating) | plant injury at 125 g/ha ([9]; 125 g ai/ha, postemergence, read-out: Plant response rating (0 to 100), Oilseed Rape) | plant injury at 31 g/ha ([11]; Preemergence, 31 g ai/ha, scale 0 to 100, 0 no effect, 100 complete control, read-out: Plant response rating, Soybean)
80: Plant response rating, Morningglory [6, 17]
